System: A-BG (Accellerase® BG from DuPont), commercial beta-glucosidase
Test: BG kinetics, cellobiose hydrolysis assay (HPLC) with glucose as competitive inhibitor, A-BG
Assay type: biochemical
Excerpt: The kinetic properties of beta glucosidase are important for cellulosic hydrolysis, since in commercial situations a wide range of substrate concentrations and different product inhibition conditions will be encountered. In this example, a Michaelis-Menten kinetics model was used to describe BG kinetics.
BG activity assay using cellobiose is the other standard assay to measure BG or cellobiase activity, which utilizes hydrolysis of cellobiose by cellobiase into two molecules of glucose, the last step of enzymatic hydrolysis of cellulose. One cellobiase unit (commonly termed as CBU) is defined as the amount of enzyme that converts […] of cellobiose or produces 2 μmol of glucose per min. Briefly, to determine BG activity, 25 μL of diluted enzyme in 50 mM citrate buffer (pH 4.8) equilibrated to 50° C. was mixed with 25 μL cellobiose (or cellobiose/glucose mixture for the kinetic study) to start the reaction. The mixture was incubated at 50° C. for 10 min, and the reaction was terminated by incubating the mixture at 99° C. for 5 min. Different methods are available to measure the glucose produced in the assays. For the kinetic study, HPLC was used.
To determine kinetic properties using cellobiose substrate, duplicate assays with cellobiose concentrations ranging from 0.47 to 15 mM and glucose concentrations of 0, 0.9, 4.5, 6.75, and 8.1 (for A-BG) or 9 (for all the other three BGs) g/L were performed. As for pNPG substrate, the range of cellobiose substrate concentration was chosen to show detectable activity at the lowest substrate concentration and saturation stage at high substrate concentration. […] Moreover, theoretically there are two ways to measure BG activity by HPLC when cellobiose is used as the substrate: tracking consumption of cellobiose or tracking production of glucose. […] In Table 3, A % is defined as follows and is an indicator of measurement sensitivity, since the difference of substrate or product concentrations before and after reaction was used to determine BG activity. Δ%=(start conc. of cellobiose−end conc. of cellobiose)/start conc. of cellobiose×100% (3) Δ%=(end conc. of glucose−start conc. of glucose)/start conc. of glucose×100% (4)
A similar simultaneous nonlinear regression method based on the competitive inhibition equation expressed in Equation (1) was used to determine kinetic parameters of BG towards cellobiose.
The specific activity used here was determined by the initial velocity approach that is required by implementing Michaelis-Menten model (Copeland, 2000). The specific activity was determined by measuring consumption of cellobiose in the first 10 min of reaction and was expressed as μmol min^−1 mg^−1, where mg^−1 means per mg of total protein. The relative activity was determined based on the maximum activity obtained in the absence of initial glucose inhibition.
The above experimental data were fit in the competitive inhibition model as expressed in Equation (1) by simultaneous nonlinear regression.

OC[C@H]1OC(O)[C@H](O)[C@@H](O)[C@@H]1O (stereo partly drawn) [glucose]
loss of activity towards cellobiose under glucose inhibition (9 g/L (0.9% w/v) initial glucose, cellobiose substrate): completely lost its activity
Ki (cellobiose substrate, competitive inhibition, pH 4.8, 50° C.): 5.2 ± 0.63 mM
Km/Ki (inhibitor influence, Km for cellobiose / Ki for glucose, pH 4.8, 50° C.): 1.26

From patent publication US10077436B2, “Beta-glucosidase enzymes for increased biomass saccharification” (Edeniq, Inc., priority 2013, dated 2018)
